US12643871B2, “Aryl formamide compound containing chiral sulfur oxide or salt thereof, preparation method, herbicidal composition and use thereof” (Qingdao Kingagroot Chemical Compound Co., Ltd., priority 2019, dated 2026)

Legend:
Format in all cases: in vivo
Malachium aquaticum = experiment: Comparison experiment (post-emergence, Table 7); conditions: Malachium aquaticum (2 branches)
Text: (§1) If there is no clear marker, the post-seedling test conditions are the same as above, and the experimental results are shown in Tables 4-7.

Galium aparine = experiment: Comparison experiment (post-emergence, Table 7); conditions: Galium aparine (5 branches)
Text: as §1

Sinapis arvensis = experiment: Comparison experiment (post-emergence, Table 7); conditions: Sinapis arvensis (3.5 leaf)
Text: as §1

Descurainia sophia = experiment: Comparison experiment (post-emergence, Table 7); conditions: Descurainia sophia (12 leaf)
Text: as §1

Amaranthus retroflexus = experiment: Comparison experiment (post-emergence, Table 7); conditions: Amaranthus retroflexus (6 leaf)
Text: as §1

Capsella bursa-pastoris = experiment: Comparison experiment (post-emergence, Table 7); conditions: Capsella bursa-pastoris (10-11 leaf)
Text: as §1

Echinochloa crusgali = experiment: Comparison experiment (post-emergence, Table 7); conditions: Echinochloa crusgali (3 leaf)
Text: as §1

Veronica didyma = experiment: Comparison experiment (post-emergence, Table 7); conditions: Veronica didyma (2 branches)
Text: as §1

Leptochloa chinensis = experiment: Comparison experiment (post-emergence) against racemate / S configuration; conditions: Leptochloa chinensis (4.5 leaf), 16DAA
Abutilon theophrasti = experiment: as above; conditions: Abutilon theophrasti (3.5 leaf), 16DAA
Green Setaria viridis = experiment: as above; conditions: for Results of comparison experiment (16DAA), weed control: Setaria viridis (4 leaf)
Alopecurus japonicas = experiment: as above; conditions: Table 6, post-seedling test conditions
Text: (§2) The above growth control rates are fresh weight control rates.
(§3) Experiment on weeding effect in post-emergence stage: monocotyledonous and dicotyledonous weed seeds (Descurainia sophia, Capsella bursa-pastoris, Galium aparine, Stellaria media, Lithospermum arvense, Rorippa indica, Alopecurus aequalis, Beckmannia syzigachne, Sclerochloa dura, Phleum paniculatum, Bromus japonicus, Aegilops tauschii, Phalaris arundinacea, Amaranthus retroflexus, Chenopodiaceae, Commelina communis, Sonchus arvensis, convolvulus arvensis, Cirsium setosum, Solanum nigrum, Acalypha australis, Digitaria sanguinalis, Echinochloa crusgalli, Setaria viridis, Setaria glauca, Leptochloa chinensis, Monochoria vaginalis, Sagittaria trifolia, Scirpus juncoides, Cyperus rotundus, Cyperus iria, Cyperus difformis, Fimbristylis, Portulaca oleracea, Xanthium sibiricum, Pharbitis nil) and major crop seeds (wheat, corn, rice, soybean, cotton, oilseed rape, millet, sorghum, potato, sesame, ricinus) were placed in plastic pots filled with soil, then covered with 0.5-2 cm of soil, allowed to grow in a good greenhouse environment. After 2 weeks of sowing, the test plants were treated in the 2 leaf stage. The tested compounds of the present invention were respectively dissolved in acetone, then added with Tween 80 and 1.5 liter/ha of emulsifiable concentrate of methyl oleate as synergist, diluted with a certain amount of water to obtain a solution with a certain concentration, and sprayed with a spray tower onto the plants. After the application, the plants were cultured for 15 days in the greenhouse, and then the experimental results of the weeding were counted. The doses of the used compounds were 500, 250, 125, 60, 30, 15 g/ha, and the averages were obtained by repeating for three times.
as §1

Digitaria sanguinalis [1] = experiment: as above; conditions: Digitaria sanguinalis, post-emergence, Table 6, post-seedling test conditions
Text: as §2, §3, §1

Corn-Zhengdan 958 = experiment: Comparison experiment (post-emergence, Table 7), crop safety on corn; conditions: Corn-Zhengdan 958 (3.5 leaf)
Text: as §1

Digitaria sanguinalis [2] = experiment: Comparison experiment (post-emergence) against racemate / S configuration; conditions: Digitaria sanguinalis (3.5 leaf), 16DAA

CC[S@@+]([O-])c1c(C(F)(F)F)ccc(C(=O)Nc2nnc(C)o2)c1SC [Compound 548]
Results of comparison experiment (16DAA), weed control (Malachium aquaticum; 3 g/ha): 30%
Results of comparison experiment (16DAA), weed control (Malachium aquaticum; 6 g/ha): 50%
Results of comparison experiment (16DAA), weed control (Malachium aquaticum; 12 g/ha): 70%
Results of comparison experiment (16DAA), weed control (Malachium aquaticum; 24 g/ha): 100%
Results of comparison experiment (16DAA), weed control (Malachium aquaticum; 48 g/ha): 100%
Results of comparison experiment (16DAA), weed control (Galium aparine; 3 g/ha): 10%
Results of comparison experiment (16DAA), weed control (Galium aparine; 6 g/ha): 10%
Results of comparison experiment (16DAA), weed control (Galium aparine; 12 g/ha): 20%
Results of comparison experiment (16DAA), weed control (Galium aparine; 24 g/ha): 20%
Results of comparison experiment (16DAA), weed control (Galium aparine; 48 g/ha): 30%
Results of comparison experiment (16DAA), weed control (Sinapis arvensis; 3 g/ha): 30%
Results of comparison experiment (16DAA), weed control (Sinapis arvensis; 6 g/ha): 40%
Results of comparison experiment (16DAA), weed control (Sinapis arvensis; 12 g/ha): 50%
Results of comparison experiment (16DAA), weed control (Sinapis arvensis; 24 g/ha): 60%
Results of comparison experiment (16DAA), weed control (Sinapis arvensis; 48 g/ha): 80%
Results of comparison experiment (16DAA), weed control (Descurainia sophia; 3 g/ha): 50%
Results of comparison experiment (16DAA), weed control (Descurainia sophia; 6 g/ha): 70%
Results of comparison experiment (16DAA), weed control (Descurainia sophia; 12 g/ha): 80%
Results of comparison experiment (16DAA), weed control (Descurainia sophia; 24 g/ha): 100%
Results of comparison experiment (16DAA), weed control (Descurainia sophia; 48 g/ha): 100%
Results of comparison experiment (16DAA), weed control (Amaranthus retroflexus; 3 g/ha): 30%
Results of comparison experiment (16DAA), weed control (Amaranthus retroflexus; 6 g/ha): 40%
Results of comparison experiment (16DAA), weed control (Amaranthus retroflexus; 12 g/ha): 60%
Results of comparison experiment (16DAA), weed control (Amaranthus retroflexus; 24 g/ha): 80%
Results of comparison experiment (16DAA), weed control (Amaranthus retroflexus; 48 g/ha): 100%
Results of comparison experiment (16DAA), weed control (Capsella bursa-pastoris; 3 g/ha): 10%
Results of comparison experiment (16DAA), weed control (Capsella bursa-pastoris; 6 g/ha): 30%
Results of comparison experiment (16DAA), weed control (Capsella bursa-pastoris; 12 g/ha): 50%
Results of comparison experiment (16DAA), weed control (Capsella bursa-pastoris; 24 g/ha): 70%
Results of comparison experiment (16DAA), weed control (Capsella bursa-pastoris; 48 g/ha): 100%
Results of comparison experiment (16DAA), weed control (Echinochloa crusgali; 3 g/ha): 50%
Results of comparison experiment (16DAA), weed control (Echinochloa crusgali; 6 g/ha): 50%
Results of comparison experiment (16DAA), weed control (Echinochloa crusgali; 12 g/ha): 70%
Results of comparison experiment (16DAA), weed control (Echinochloa crusgali; 24 g/ha): 80%
Results of comparison experiment (16DAA), weed control (Echinochloa crusgali; 48 g/ha): 100%
Results of comparison experiment (16DAA), weed control (Veronica didyma; 3 g/ha): 10%
Results of comparison experiment (16DAA), weed control (Veronica didyma; 6 g/ha): 20%
Results of comparison experiment (16DAA), weed control (Veronica didyma; 12 g/ha): 20%
Results of comparison experiment (16DAA), weed control (Veronica didyma; 24 g/ha): 50%
Results of comparison experiment (16DAA), weed control (Veronica didyma; 48 g/ha): 70%
Results of comparison experiment (16DAA), weed control (Leptochloa chinensis; 3 g/ha): 0%
Results of comparison experiment (16DAA), weed control (Leptochloa chinensis; 6 g/ha): 20%
Results of comparison experiment (16DAA), weed control (Leptochloa chinensis; 12 g/ha): 50%
Results of comparison experiment (16DAA), weed control (Leptochloa chinensis; 24 g/ha): 70%
Results of comparison experiment (16DAA), weed control (Leptochloa chinensis; 48 g/ha): 80%
Results of comparison experiment (16DAA), weed control (Abutilon theophrasti; 3 g/ha): 30%
Results of comparison experiment (16DAA), weed control (Abutilon theophrasti; 6 g/ha): 40%
Results of comparison experiment (16DAA), weed control (Abutilon theophrasti; 12 g/ha): 50%
Results of comparison experiment (16DAA), weed control (Abutilon theophrasti; 24 g/ha): 70%
Results of comparison experiment (16DAA), weed control (Abutilon theophrasti; 48 g/ha): 100%
Results of comparison experiment, Green Setaria viridis (30 g/ha) (Green Setaria viridis; 30 g/ha, Table 6, post-seedling test conditions): 100%
Results of comparison experiment (16DAA), weed control (Green Setaria viridis; 3 g/ha): 20%
Results of comparison experiment (16DAA), weed control (Green Setaria viridis; 6 g/ha): 40%
Results of comparison experiment (16DAA), weed control (Green Setaria viridis; 12 g/ha): 80%
Results of comparison experiment (16DAA), weed control (Green Setaria viridis; 24 g/ha): 100%
Results of comparison experiment (16DAA), weed control (Green Setaria viridis; 48 g/ha): 100%
Results of comparison experiment, Alopecurus japonicas (120 g/ha) (Alopecurus japonicas): 50%
pest or weed control at 30 g/ha (Digitaria sanguinalis [1]): 100%
Results of comparison experiment (16DAA), crop damage (Corn-Zhengdan 958; 3 g/ha): 0%
Results of comparison experiment (16DAA), crop damage (Corn-Zhengdan 958; 6 g/ha): 0%
Results of comparison experiment (16DAA), crop damage (Corn-Zhengdan 958; 12 g/ha): 0%
Results of comparison experiment (16DAA), crop damage (Corn-Zhengdan 958; 24 g/ha): 0%
Results of comparison experiment (16DAA), crop damage (Corn-Zhengdan 958; 48 g/ha): 0%
Results of comparison experiment (16DAA), weed control (Digitaria sanguinalis [2]; 3 g/ha): 40%
Results of comparison experiment (16DAA), weed control (Digitaria sanguinalis [2]; 6 g/ha): 40%
Results of comparison experiment (16DAA), weed control (Digitaria sanguinalis [2]; 12 g/ha): 60%
Results of comparison experiment (16DAA), weed control (Digitaria sanguinalis [2]; 24 g/ha): 80%
Results of comparison experiment (16DAA), weed control (Digitaria sanguinalis [2]; 48 g/ha): 100%
